± gives the expanded uncertainty stated by the source.
Assays:
[1] = Liquid
[2] = excess molar enthalpy (molar enthalpy of mixing); xn = mol fraction of the nth substance listed; conditions: 298.15 K, 101.3 kPa, Liquid, Flow calorimetry

Row | SMILES | vapor or sublimation pressure ([1]; 278.15 K) [kPa] | vapor or sublimation pressure ([1]; 283.15 K) [kPa] | vapor or sublimation pressure ([1]; 288.15 K) [kPa] | vapor or sublimation pressure ([1]; 293.15 K) [kPa] | vapor or sublimation pressure ([1]; 298.15 K) [kPa] | vapor or sublimation pressure ([1]; 303.15 K) [kPa] | vapor or sublimation pressure ([1]; 308.15 K) [kPa] | vapor or sublimation pressure ([1]; 313.15 K) [kPa] | vapor or sublimation pressure ([1]; 318.15 K) [kPa] | vapor or sublimation pressure ([1]; 323.15 K) [kPa] | further results
1 | CCCCBr [1-bromobutane] | 1.86 ± 0.014 | 2.48 ± 0.015 | 3.265 ± 0.016 | 4.261 ± 0.017 | 5.506 ± 0.018 | 7.039 ± 0.02 | 8.899 ± 0.023 | 11.15 ± 0.026 | 13.87 ± 0.03 | 17.09 ± 0.035 | 
2 | CCCCBr [1-bromobutane] + CC(C)CO |  |  |  |  |  |  |  |  |  |  | excess molar enthalpy ([2]; x2 = 0.0421): 0.127 ± 0.00287 kcal/mol; excess molar enthalpy ([2]; x2 = 0.0942): 0.203 ± 0.0043 kcal/mol; excess molar enthalpy ([2]; x2 = 0.1932): 0.269 ± 0.00574 kcal/mol; excess molar enthalpy ([2]; x2 = 0.2938): 0.298 ± 0.00645 kcal/mol; excess molar enthalpy ([2]; x2 = 0.3468): 0.304 ± 0.00645 kcal/mol; excess molar enthalpy ([2]; x2 = 0.3957): 0.304 ± 0.00645 kcal/mol; excess molar enthalpy ([2]; x2 = 0.4476): 0.298 ± 0.00645 kcal/mol; excess molar enthalpy ([2]; x2 = 0.499): 0.288 ± 0.00621 kcal/mol; excess molar enthalpy ([2]; x2 = 0.6): 0.258 ± 0.0055 kcal/mol; excess molar enthalpy ([2]; x2 = 0.7021): 0.213 ± 0.00454 kcal/mol; excess molar enthalpy ([2]; x2 = 0.8052): 0.152 ± 0.00335 kcal/mol; excess molar enthalpy ([2]; x2 = 0.906): 0.0789 ± 0.00167 kcal/mol; excess molar enthalpy ([2]; x2 = 0.9587): 0.038 ± 0.000956 kcal/mol
3 | CCCCBr [1-bromobutane] + CCC(C)O |  |  |  |  |  |  |  |  |  |  | excess molar enthalpy ([2]; x2 = 0.0424): 0.124 ± 0.00263 kcal/mol; excess molar enthalpy ([2]; x2 = 0.0948): 0.221 ± 0.00478 kcal/mol; excess molar enthalpy ([2]; x2 = 0.1942): 0.306 ± 0.00645 kcal/mol; excess molar enthalpy ([2]; x2 = 0.2951): 0.35 ± 0.00741 kcal/mol; excess molar enthalpy ([2]; x2 = 0.3482): 0.363 ± 0.00765 kcal/mol; excess molar enthalpy ([2]; x2 = 0.3973): 0.369 ± 0.00789 kcal/mol; excess molar enthalpy ([2]; x2 = 0.4492): 0.366 ± 0.00789 kcal/mol; excess molar enthalpy ([2]; x2 = 0.5006): 0.36 ± 0.00765 kcal/mol; excess molar enthalpy ([2]; x2 = 0.6015): 0.333 ± 0.00717 kcal/mol; excess molar enthalpy ([2]; x2 = 0.7035): 0.285 ± 0.00621 kcal/mol; excess molar enthalpy ([2]; x2 = 0.8062): 0.212 ± 0.00454 kcal/mol; excess molar enthalpy ([2]; x2 = 0.9066): 0.117 ± 0.00263 kcal/mol; excess molar enthalpy ([2]; x2 = 0.959): 0.0588 ± 0.00143 kcal/mol
4 | CC(C)CO [2-methyl-1-propanol] | 0.335 ± 0.011 | 0.505 ± 0.011 | 0.739 ± 0.012 | 1.057 ± 0.013 | 1.501 ± 0.014 | 2.133 ± 0.014 | 2.956 ± 0.015 | 4.026 ± 0.016 | 5.444 ± 0.018 | 7.237 ± 0.02 | 
5 | CCC(C)O (stereo unspecified) [butan-2-ol] | 0.519 ± 0.011 | 0.78 ± 0.012 | 1.137 ± 0.013 | 1.648 ± 0.014 | 2.324 ± 0.014 | 3.256 ± 0.016 | 4.462 ± 0.017 | 6.048 ± 0.019 | 8.105 ± 0.022 | 10.71 ± 0.025 | 
